#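 Assay format: 96-well plates, 48-hour exposure. TGI: concentration producing complete growth inhibition.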
# What was measured:
# Assay in all cases: NCI anticancer screen, dose series, 48 h
# KM12 colon = test system: KM12 colon
# UACC-62 melanoma = test system: UACC-62 melanoma
# HCT-116 colon = test system: HCT-116 colon
# LOX IMVI melanoma = test system: LOX IMVI melanoma
# PC-3 prostate = test system: PC-3 prostate
# A498 renal = test system: A498 renal
# T-47D breast = test system: T-47D breast
# NCI-H460 lung = test system: NCI-H460 lung
# MALME-3M melanoma = test system: MALME-3M melanoma
# SK-MEL-5 melanoma = test system: SK-MEL-5 melanoma
# UACC-257 melanoma = test system: UACC-257 melanoma
# SK-OV-3 ovarian = test system: SK-OV-3 ovarian
# CCRF-CEM leukemia = test system: CCRF-CEM leukemia
# MOLT-4 leukemia = test system: MOLT-4 leukemia
structure (smiles),measurement,setting,value
N#Cc1c(N)nc(-c2ccc(Cl)cc2)c2c1-c1ccccc1S(=O)(=O)CC2,TGI,KM12 colon,> 100 µM
same,TGI,UACC-62 melanoma,> 100 µM
same,TGI,HCT-116 colon,> 100 µM
same,TGI,LOX IMVI melanoma,> 100 µM
same,TGI,PC-3 prostate,> 100 µM
same,TGI,A498 renal,> 100 µM
same,TGI,T-47D breast,> 100 µM
same,TGI,NCI-H460 lung,> 100 µM
same,TGI,MALME-3M melanoma,> 100 µM
same,TGI,SK-MEL-5 melanoma,> 100 µM
same,TGI,UACC-257 melanoma,> 100 µM
O=C(NC1=NCC(CN2CCN(c3ccccc3)CC2)O1)Nc1ccccc1 (stereo not drawn),TGI,KM12 colon,> 100 µM
same,TGI,UACC-62 melanoma,> 100 µM
same,TGI,HCT-116 colon,> 100 µM
same,TGI,LOX IMVI melanoma,> 100 µM
same,TGI,SK-OV-3 ovarian,> 100 µM
same,TGI,PC-3 prostate,> 100 µM
same,TGI,CCRF-CEM leukemia,> 100 µM
same,TGI,A498 renal,> 100 µM
same,TGI,MOLT-4 leukemia,> 100 µM
same,TGI,T-47D breast,> 100 µM
same,TGI,NCI-H460 lung,> 100 µM
same,TGI,MALME-3M melanoma,> 100 µM
same,TGI,SK-MEL-5 melanoma,> 100 µM
same,TGI,UACC-257 melanoma,> 100 µM
COC(=O)c1ccc(C)cc1CC1Cc2cc(C)ccc2C1=O (stereo not drawn),TGI,KM12 colon,> 100 µM
same,TGI,UACC-62 melanoma,> 100 µM
same,TGI,HCT-116 colon,> 100 µM
same,TGI,LOX IMVI melanoma,> 100 µM
same,TGI,SK-OV-3 ovarian,> 100 µM
same,TGI,PC-3 prostate,> 100 µM
same,TGI,CCRF-CEM leukemia,> 100 µM
same,TGI,A498 renal,> 100 µM
same,TGI,MOLT-4 leukemia,> 100 µM
same,TGI,T-47D breast,> 100 µM
same,TGI,NCI-H460 lung,> 100 µM
same,TGI,MALME-3M melanoma,> 100 µM
same,TGI,UACC-257 melanoma,> 100 µM
C=CCNC(=O)NC(=O)CSC1=NNC2(C(=O)N1)c1ccccc1-c1ccccc12,TGI,KM12 colon,> 10 µM
same,TGI,UACC-62 melanoma,> 10 µM
same,TGI,HCT-116 colon,> 10 µM
same,TGI,LOX IMVI melanoma,> 10 µM
same,TGI,SK-OV-3 ovarian,> 10 µM
same,TGI,PC-3 prostate,> 10 µM
same,TGI,CCRF-CEM leukemia,> 10 µM
same,TGI,MOLT-4 leukemia,> 10 µM
same,TGI,T-47D breast,> 10 µM
same,TGI,NCI-H460 lung,> 10 µM
same,TGI,MALME-3M melanoma,> 10 µM
same,TGI,SK-MEL-5 melanoma,> 10 µM
same,TGI,UACC-257 melanoma,> 10 µM
O=C(CN1CCCCC1)Nc1ccc2sc3ccccc3c(=O)c2n1,TGI,KM12 colon,38.7 µM
same,TGI,UACC-62 melanoma,30.1 µM
same,TGI,HCT-116 colon,26.2 µM
same,TGI,LOX IMVI melanoma,26.4 µM
same,TGI,SK-OV-3 ovarian,48.9 µM
same,TGI,PC-3 prostate,50.1 µM
same,TGI,CCRF-CEM leukemia,> 100 µM
same,TGI,MOLT-4 leukemia,30 µM
same,TGI,T-47D breast,> 100 µM
same,TGI,NCI-H460 lung,36.5 µM
same,TGI,MALME-3M melanoma,49 µM
same,TGI,SK-MEL-5 melanoma,36.1 µM
same,TGI,UACC-257 melanoma,39.7 µM
CC(=O)C(=C(c1ccccc1)c1ccccc1)c1ccccc1,TGI,KM12 colon,> 100 µM
same,TGI,UACC-62 melanoma,> 100 µM
same,TGI,HCT-116 colon,> 100 µM
same,TGI,LOX IMVI melanoma,> 100 µM
same,TGI,SK-OV-3 ovarian,> 100 µM
same,TGI,PC-3 prostate,> 100 µM
same,TGI,CCRF-CEM leukemia,> 100 µM
same,TGI,MOLT-4 leukemia,> 100 µM
same,TGI,T-47D breast,> 100 µM
same,TGI,NCI-H460 lung,> 100 µM
same,TGI,MALME-3M melanoma,> 100 µM
same,TGI,SK-MEL-5 melanoma,> 100 µM
same,TGI,UACC-257 melanoma,> 100 µM
C=C(C)C1=CCC[C@]2(C1)N=C(OC)[C@@H](C(C)C)N=C2OC,TGI,KM12 colon,> 100 µM
same,TGI,UACC-62 melanoma,> 100 µM
same,TGI,HCT-116 colon,> 100 µM
same,TGI,SK-OV-3 ovarian,> 100 µM
same,TGI,PC-3 prostate,> 100 µM
same,TGI,CCRF-CEM leukemia,> 100 µM
same,TGI,A498 renal,> 100 µM
same,TGI,MOLT-4 leukemia,> 100 µM
same,TGI,T-47D breast,> 100 µM
same,TGI,NCI-H460 lung,> 100 µM
same,TGI,MALME-3M melanoma,> 100 µM
same,TGI,SK-MEL-5 melanoma,> 100 µM
same,TGI,UACC-257 melanoma,> 100 µM
O=C(O)c1nc2cc(C(F)(F)F)ccc2nc1Nc1ccc(F)cc1,TGI,KM12 colon,30.3 µM
same,TGI,UACC-62 melanoma,31.1 µM
same,TGI,HCT-116 colon,48.4 µM
same,TGI,LOX IMVI melanoma,48.5 µM
same,TGI,SK-OV-3 ovarian,> 100 µM
same,TGI,PC-3 prostate,31.6 µM
same,TGI,CCRF-CEM leukemia,> 100 µM
same,TGI,A498 renal,47.7 µM
same,TGI,MOLT-4 leukemia,59.8 µM
same,TGI,T-47D breast,> 100 µM
same,TGI,MALME-3M melanoma,50.9 µM
same,TGI,SK-MEL-5 melanoma,48.1 µM
same,TGI,UACC-257 melanoma,60.2 µM

# From PubChem BioAssay (NCI)
